Reference: patent publication US11702426B2, “Macrocyclic deaza-purinones for the treatment of viral infections” (JANSSEN SCIENCES IRELAND UNLIMITED COMPANY, priority 2013, dated 2023)
Where two headings read alike, the source gives them in different places.

Tests used:
[1] = rcm bond
human TLR7 = target: T1, human TLR7 (Homo sapiens, UniProt Q9NYK1); test: HEK293 TLR7-NFκB-luc cellular reporter assay; type: cell-based; conditions: lowest effective concentration; HEK293 transiently transfected with TLR7 and NFκB-luc; 6 hours incubation
T1 construct: expressed in transfected cells; host or cells: HEK293
T1 sequence (Q9NYK1 27-1049): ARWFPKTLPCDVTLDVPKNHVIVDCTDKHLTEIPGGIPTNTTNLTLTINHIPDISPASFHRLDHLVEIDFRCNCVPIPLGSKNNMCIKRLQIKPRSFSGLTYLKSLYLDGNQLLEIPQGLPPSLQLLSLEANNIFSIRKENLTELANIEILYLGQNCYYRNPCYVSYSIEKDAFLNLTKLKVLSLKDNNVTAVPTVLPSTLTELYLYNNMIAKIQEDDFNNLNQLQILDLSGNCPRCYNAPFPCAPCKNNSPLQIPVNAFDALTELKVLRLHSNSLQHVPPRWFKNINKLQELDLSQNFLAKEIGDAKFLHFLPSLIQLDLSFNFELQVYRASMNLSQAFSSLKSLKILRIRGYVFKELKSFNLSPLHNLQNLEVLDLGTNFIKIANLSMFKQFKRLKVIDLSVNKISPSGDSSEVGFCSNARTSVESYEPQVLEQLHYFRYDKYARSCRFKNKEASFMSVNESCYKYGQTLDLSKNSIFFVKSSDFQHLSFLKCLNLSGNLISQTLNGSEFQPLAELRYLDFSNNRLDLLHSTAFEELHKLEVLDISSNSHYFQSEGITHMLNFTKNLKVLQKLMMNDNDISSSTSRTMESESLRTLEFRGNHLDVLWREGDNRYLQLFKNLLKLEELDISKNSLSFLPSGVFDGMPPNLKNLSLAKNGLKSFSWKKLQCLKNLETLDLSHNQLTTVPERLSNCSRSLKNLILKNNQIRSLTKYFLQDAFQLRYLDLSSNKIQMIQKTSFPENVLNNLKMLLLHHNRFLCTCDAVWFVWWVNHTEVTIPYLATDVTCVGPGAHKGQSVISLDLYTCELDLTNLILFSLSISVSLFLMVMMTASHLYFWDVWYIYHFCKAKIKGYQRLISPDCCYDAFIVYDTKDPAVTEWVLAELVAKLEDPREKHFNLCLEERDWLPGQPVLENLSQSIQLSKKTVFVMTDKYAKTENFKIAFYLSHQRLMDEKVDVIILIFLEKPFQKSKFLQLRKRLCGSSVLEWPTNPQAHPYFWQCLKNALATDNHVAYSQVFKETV
Description: The ability of compounds to activate human TLR7 and TLR8 was assessed in a cellular reporter assay using HEK293 cells transiently transfected with a TLR7 or TLR8 expression vector and NFκB-luc reporter construct. Briefly, HEK293 cells were grown in culture medium (DMEM supplemented with 10% FCS and 2 mM Glutamine). For transfection of cells in 15 cm dishes, cells were detached with Trypsin-EDTA, transfected with a mix of CMV-TLR7 or TLR8 plasmid (1,700 ng), NFκB-luc plasmid (850 ng) and a transfection reagent and incubated 48 hours at 37° C. in a humidified 5% CO2 atmosphere. Transfected cells were then washed in PBS, detached with Trypsin-EDTA, and resuspended in medium to a density of 1.25×10^5 cells/mL. Forty microliters of cells were then dispensed into each well in 384-well plates, where 200 nL of compound in 100% DMSO was already present. Following 6 hours incubation at 37° C., 5% CO2, the luciferase activity was determined by adding 15 μl of Steady Lite Plus substrate (Perkin Elmer) to each well and readout performed on a ViewLux ultraHTS microplate imager (Perkin Elmer). Dose response curves were generated from measurements performed in quadruplicates. Lowest effective concentrations (LEC) values, defined as the concentration that induces an effect which is at least two fold above the standard deviation of the assay, were determined for each compound.

[2] = test system: interferon production in human PBMC; test: Interferon production in human PBMC, read out on HEK-ISRE-luc reporter cells; type: cell-based; conditions: lowest effective concentration, PBMC incubated overnight with compound, supernatant transferred to HEK-ISRE-luc cells; for PBMC HEK-ISRE-luc (LEC; μM): 24 hours; for minimal effective concentration: Homo sapiens, PBMC, 24 h, read-out: PBMC HEK-ISRE-luc (LEC; μM)
Description: Activation of human TLR7 results in robust production of interferon by plasmacytoid dendritic cells present in human blood. The potential of compounds to induce interferon was evaluated by determination of interferon in the conditioned media from peripheral blood mononuclear cells (PBMC). The presence of interferon in the samples was determined, using an interferon reporter cell line stably expressing an interferon-stimulated responsive elements (ISRE)-luc reporter construct. The ISRE element with sequence TAGTTTCACTTTCCC (SEQ ID NO: 1) is highly responsive to the STAT1-STAT2-IRF9 transcription factor, which becomes activated upon binding of IFN-I to the IFN receptor. Briefly, PBMCs were prepared from buffy coats of at least two donors using a standard Ficoll centrifugation protocol. Isolated PBMCs were resuspended in RPMI medium supplemented with 10% human AB serum and 2×10^5 cells/well were dispensed into 384-well plates containing compounds (70 μL total volume). After overnight incubation of the PBMCs with the compounds, 10 μL of supernatant was transferred to 384-well plates containing 5×10^3 HEK-ISRE-luc cells/well in 30 μL (plated the day before). Following 24 hours of incubation, activation of the ISRE elements was measured by assaying luciferase activity using 40 μL/well Steady Lite Plus substrate (Perkin Elmer) and measured with ViewLux ultraHTS microplate imager (Perkin Elmer). The stimulating activity of each compound on the HEK-ISRE-luc cells was reported as LEC. The LEC in turn indicates the degree of ISRE activation on transfer of a defined amount of PBMC culture medium. Recombinant interferon alfa-2a (Roferon-A) was used as a standard control compound.

Row | SMILES | HEK293 TLR7-NFκB-luc (LEC; μM) (human TLR7) | minimal effective concentration [2] | further results
1 | CCOC(=O)N1CCc2ccc(OC)c(c2)OCC=CCOc2cc1c([N+](=O)[O-])c(N)n2 |  |  | ring closure, yield of all isomers ([1]; from C=CCOc1cc(N(CCc2ccc(OC)c(OCC=C)c2)C(=O)OCC)c([N+](=O)[O-])c(N)n1, Grubbs-Hoveyda catalyst 2nd generation (with chlorodicyclohexylborane), 1,2-dichloroethane, 4.24 mM, 120.0 °C, 23.0 h): 25%
2 | CCOC(=O)N1Cc2cc(OC)cc(c2)OCC=CCCOc2cc1c([N+](=O)[O-])c(N)n2 |  |  | ring closure, yield of all isomers ([1]; from C=CCCOc1cc(N(Cc2cc(OC)cc(OCC=C)c2)C(=O)OCC)c([N+](=O)[O-])c(N)n1, Grubbs 2nd generation, CH2Cl2, 5.3 mM, 25.0 °C, 16.0 h): 41%
3 | CCOC(=O)N1Cc2cccc(c2)CC=CCCOc2cc1c([N+](=O)[O-])c(N)n2 |  |  | ring closure, yield of all isomers ([1]; from C=CCCOc1cc(N(Cc2cccc(CC=C)c2)C(=O)OCC)c([N+](=O)[O-])c(N)n1, Grubbs 2nd generation, CH2Cl2, 3.38 mM, 25.0 °C, 72.0 h): 33%
4 | CCOC(=O)N1Cc2cccc(c2)N(C(=O)OC(C)(C)C)CC=CCCOc2cc1c([N+](=O)[O-])c(N)n2 |  |  | ring closure, yield of all isomers ([1]; from C=CCCOc1cc(N(Cc2cccc(N(CC=C)C(=O)OC(C)(C)C)c2)C(=O)OCC)c([N+](=O)[O-])c(N)n1, Grubbs catalyst 2nd generation, dichloromethane, 6.93 mM, 25.0 °C, 24.0 h): 67%
5 | CCOC(=O)N1Cc2cccc(c2)N(C(=O)OC(C)(C)C)CC=CCOc2cc1c([N+](=O)[O-])c(N)n2 |  |  | ring closure, yield of all isomers ([1]; from C=CCOc1cc(N(Cc2cccc(N(CC=C)C(=O)OC(C)(C)C)c2)C(=O)OCC)c([N+](=O)[O-])c(N)n1, Grubbs-Hoveyda catalyst 2nd generation (with chlorodicyclohexylborane), 1,2-dichloroethane, 4.1 mM, 120.0 °C, 16.0 h): 40%
6 | CCOC(=O)N1Cc2cccc(c2)OCC=CCCOc2cc1c([N+](=O)[O-])c(N)n2 |  |  | ring closure, yield of all isomers ([1]; from C=CCCOc1cc(N(Cc2cccc(OCC=C)c2)C(=O)OCC)c([N+](=O)[O-])c(N)n1, Grubbs 2nd generation, CH2Cl2, 5.22 mM, 25.0 °C, 20.0 h): 15%
7 | CCOC(=O)N1Cc2cccc(c2)OCC=CCOc2cc1c([N+](=O)[O-])c(N)n2 |  |  | ring closure, yield of all isomers ([1]; from C=CCOc1cccc(CN(C(=O)OCC)c2cc(OCC=C)nc(N)c2[N+](=O)[O-])c1, Hoveyda-Grubbs 2nd generation (with chlorodicyclohexylborane), 1,2-dichloroethane, 3.47 mM, 120.0 °C, 37.0 h): 19%
8 | CCOC(=O)N1Cc2cccc(c2)OCCC=CCOc2cc1c([N+](=O)[O-])c(N)n2 |  |  | ring closure, yield of all isomers ([1]; from C=CCCOc1cccc(CN(C(=O)OCC)c2cc(OCC=C)nc(N)c2[N+](=O)[O-])c1, Grubbs-Hoveyda catalyst 2nd generation (with chlorodicyclohexylborane), 1,2-dichloroethane, 4.18 mM, 120.0 °C, 32.0 h): 36%
9 | CCOC(=O)N1Cc2ncccc2OCC=CCCOc2cc1c([N+](=O)[O-])c(N)n2 |  |  | ring closure, yield of all isomers ([1]; from C=CCCOc1cc(N(Cc2ncccc2OCC=C)C(=O)OCC)c([N+](=O)[O-])c(N)n1, Hoveyda-Grubbs 2nd generation (with chlorodicyclohexylborane), 1,2-dichloroethane, 3.6 mM, 120.0 °C, 3.0 h): 22%
10 | Cl.Nc1nc2cc3c1nc(O)n3Cc1cc(F)cc(c1)OC/C=C/CCO2 [Compound 28] | 0.91 µM |  | PBMC HEK-ISRE-luc (LEC; μM) [2]: 0.15 µM
11 | Nc1nc2cc3c1nc(O)n3Cc1cccc(c1)NC/C=C\CCO2 [Compound 29] | 1.14 µM | 0.48 µM | 
12 | Nc1nc2cc3c1nc(O)n3Cc1cc(F)cc(c1)OC/C=C/CO2 [Compound 30] | 0.64 µM | 0.15 µM | 
13 | Cl.Nc1nc2cc3c1nc(O)n3Cc1cc(F)cc(c1)OC/C=C/CO2 [Compound 31] | 1.19 µM |  | PBMC HEK-ISRE-luc (LEC; μM) [2]: 0.15 µM
14 | Nc1nc2cc3c1nc(O)n3Cc1cc(F)cc(c1)OCCCCCO2 [Compound 32] | 2.92 µM | 0.49 µM | 
15 | Nc1nc2cc3c1nc(O)n3Cc1cc(F)cc(c1)OCCCCO2 [Compound 33] | 2.77 µM | 0.45 µM | 
16 | Nc1nc2cc3c1nc(O)n3Cc1cccc(c1)NCCCCCO2 [Compound 34] | 8.1 µM | 2.11 µM | 
17 | Nc1nc2cc3c1nc(O)n3CCc1cccc(c1)OC/C=C/CO2 [Compound 35] | 17.43 µM | 1.98 µM | 
18 | COc1ccc2cc1OC/C=C/COc1cc3c(nc(O)n3CC2)c(N)n1 [Compound 36] | 13.75 µM | 1.63 µM | 
